Test results from patent publication US20220362254A1, “METHODS FOR REPROGRAMMING CANCER CELLS” (Thomas Jefferson University, priority 2019, published 2022).

Legend:
[1] = system: HL-60 cells; settings: an APL cell line; cited from earlier work
[2] = biological target: EZH2 (Homo sapiens, UniProt Q15910); settings: also inhibits other methyltransferases; cited from earlier work
[3] = system: HH, HUT78, Jurkat E6.1 and CCRF-HSB-2 cells; experiment: Cell viability screen of TCL cells (flow cytometry with Sytox Green); assay type: cell-based, human; settings: HUT78, Jurkat E6.1, CCRF-HSB-2, with and without 1 μM EPZ 24 hrs, then 10 days
Description: (§1) Sezary syndrome (SS) cells HH (FIG. 12A) and HUT78 (FIG. 12B), and T-cell acute lymphoblastic leukemia (T-ALL) cells Jurkat E6.1 (FIG. 12C) and CCRF-HSB-2 (FIG. 12D) were grown with and without 1 μM EPZ for 24 hrs. Indicated small molecule compounds were added in indicated concentrations and cells were grown for an additional 10 days.
To test the idea that restoring the ability of cells to de-condense nascent chromatin may enable reprogramming of TCLs, a two-step induction was devised: Cells were first treated with the inhibitors of the EZH1/2 HMTs, and then induced with small molecule ligands known to activate specific TFs. […] A library of small molecules was compiled that included ligands for nuclear hormone receptors, cytokines, ligands for GPCRs, and small molecules that are used to reprogram mature cells into pluripotent cells (FIG. 11). Since different ligands may induce reprogramming of leukemic cells into different lineages, it was not possible to use specific differentiation markers at initial stages of these screens, and therefore cell viability was used as a readout for the initial screens. The earliest effects on cell viability were observed after 5 days of treatment, and therefore screens for cell viability (flow cytometry with Sytox green) were performed at days 8-11. […]

[4] = system: AML cell lines THP-1, K562 and KG-1a; experiment: Cell viability of AML cell lines (flow cytometry with Sytox Green); assay type: cell-based, human; settings: THP-1, K562, KG-1a; performed as in FIG. 12
Description: as §1
The assays were performed as described in FIG. 12.
Similar experiments were performed with the AML cell lines THP-1, K562 and KG-1a.

[5] = system: MEF2; experiment: CAA: binding of MEF2 to nascent chromatin in CCRF-HSB-2 cells; assay type: cell-based, human; settings: 5 μM ISX9 6 hr, with or without 0.5 μM EPZ pre-treatment
Description: (§2) FIGS. 15A-15C illustrate the effect of EPZ and small molecule ligand treatment on TF binding. […] Cells were immunostained with antibodies to LXRa (left), and GR (right). Nuclei stained by DAPI are shown in the lower panel. […] In FIG. 15C, T-ALL CCRF-HSB-2 cells were untreated or treated for 6 hr with 5 μM of ISX9, or pre-treated with 0.5 μM EPZ and then treated for 6 hr with 5 μM of ISX9. In FIG. 15B and FIG. 15C, DNA was labeled with EdU for 15 min. In FIG. 15B, CAA was performed with antibodies to H3K27me3 (left), LXRa (middle), and GR (right). In FIG. 15C, with antibody to MEF-2. PLA signals are shown in the lower panel. The schemes above show the state of condensation of nascent chromatin.
(§3) Chromatin assembly assay: Cells were grown on chamber slides, pulse-labeled with 5 μM EdU and fixed at room temperature with 4% formaldehyde in PBS for 15 min, washed with PBS, and permeabilized with 0.3% Triton for 15 min. Cells were subjected to Click-iT reaction with biotin-azide for 30 min. […] The results of CAA experiments shown in FIG. 1A were quantified by counting the number of PLA signals per EdU-labeled nuclei in 50 cells of each of the three independent experiments. The nature of the results in the rest of the figures alleviated the need to quantify the results of these assays.

[6] = system: THP-1 Luc+ cells; experiment: THP-1 Luc+ xenograft AML model, bioluminescence; assay type: in vivo; settings: NRG mice, THP-1 Luc+ 1×10^6/mouse; 30 days post injection
Description: NRG were mice injected with THP-1 Luc+ cells, an especially aggressive AML line (1×10^6/mouse). 14 days post-injection, mice were imaged and left untreated (Controls), treated with EPZ alone, Dexa alone and ISX9 alone for 16 days, or pre-treated (2 days) with EPZ and co-treated with Dexa and EPZ (Dexa+EPZ) or with ISX9 and EPZ (ISX9+EPZ) for 14 additional days.

[7] = system: all tested leukemias; experiment: In vitro assays with cultured leukemic cells of various leukemia types; assay type: cell-based; settings: cell lines of various leukemia types
Description: Leukemic cells from patients can be established in short-term culture for about 10 days. During this time, these cells are screened for the best possible reprogramming agent, which causes reprogramming (e.g. differentiation), loss of cell viability and apoptosis. […] These assays include cell viability, apoptosis induction, and examining cell differentiation markers. Thus, within 7-10 days, the most efficient molecules are determined, which induce reprogramming of leukemic cells, which leads to inhibition of cell viability and induction of apoptosis in individual patients. Indeed, similar studies using a number of different cell lines of various leukemia types have seen differences in responses to various reprogramming agents (FIG. 14).

[8] = system: H3K27me3; experiment: CAA: H3K27me3 on nascent chromatin of TCL cells (HUT78); assay type: cell-based, human
Description: FIG. 10B: HUT78 cells were induced with 0.2 μM of RXR for the indicated times. Cells were labeled with EdU for 15 min, and CAA was performed between Biotin (EdU) and H3K27me3 antibody. PLA only is shown in the lower panel.
FIGS. 15A-15C illustrate the effect of EPZ and small molecule ligand treatment on TF binding. […] Cells were immunostained with antibodies to LXRa (left), and GR (right). Nuclei stained by DAPI are shown in the lower panel. […] In FIG. 15C, T-ALL CCRF-HSB-2 cells were untreated or treated for 6 hr with 5 μM of ISX9, or pre-treated with 0.5 μM EPZ and then treated for 6 hr with 5 μM of ISX9. In FIG. 15B and FIG. 15C, DNA was labeled with EdU for 15 min. […]
as §3, with “15” for “15 min. Cells were subjected to Click-iT reaction with biotin-azide for 30”
New approaches to study the fate of chromatic-associated proteins following DNA replication were developed. […] Reliable pulse-chase EdU labeling in cells can be detected from 3-5 min to several hours. […]

[9] = system: LXRa; experiment: Immunostaining of LXRa localisation in HUT78 cells; assay type: cell-based, human; settings: 1 μM GW3965, untreated: mostly in the cytoplasm
Description: as §2

[10] = system: LXRa; experiment: CAA: binding of LXRa to nascent DNA in HUT78 cells; assay type: cell-based, human; settings: 6 hr 1 μM GW3965, no EPZ
Description: as §2, §3

[11] = system: H3K27me3; experiment: Chromatin assembly assay (CAA): H3K27me3 on nascent DNA of CD34+ HPCs; assay type: cell-based, human; settings: CD34+ HPCs exposed to GSKJ4 during 12 hr induction; EdU 15 min, chased to 1 hr
Excerpt: (§4) FIGS. 5A-5B illustrate that fast accumulation of post-replicative H3K27me3 leads to decreased recruitment of lineage-determining TFs to DNA. In FIG. 5A, CD34^+ cells were induced toward myeloid differentiation with G-CSF (left) or M-CSF (middle), or erythroid differentiation with EPO (right) for 12 hr. During the induction period cells were left untreated (upper panels) or treated with the GSKJ4 inhibitor of the H3K27me3 de-methylases (KDMs) UTX and JMJD3 (lower panels). DNA was pulse-labeled with EdU for 15 min and chased to 1 hr. CAA was performed between nascent DNA (biotin) and H3K27me3 (left columns) or (in the right columns) C/EBPa (left), PU.1 (middle) or GATA-1 (right). […] In FIG. 5B, quantification of the results of CAA experiments was determined by counting the number of PLA signals per EdU-labeled nuclei in 50 cells/each of the three independent experiments.
as §3, with “15” for “15 min. Cells were subjected to Click-iT reaction with biotin-azide for 30”, “assays. […]” for “assays.”

[12] = system: C/EBPa; experiment: CAA: recruitment of C/EBPa to nascent DNA in CD34+ HPCs; assay type: cell-based, human; settings: CD34+ HPCs induced with G-CSF 12 hr
Excerpt: as §4
as §3, with “15” for “15 min. Cells were subjected to Click-iT reaction with biotin-azide for 30”, “assays. […]” for “assays.”

[13] = system: PU.1; experiment: CAA: recruitment of PU.1 to nascent DNA in CD34+ HPCs; assay type: cell-based, human; settings: CD34+ HPCs induced with M-CSF 12 hr
Excerpt: as §4
as §3, with “15” for “15 min. Cells were subjected to Click-iT reaction with biotin-azide for 30”, “assays. […]” for “assays.”

[14] = system: GATA-1; experiment: CAA: recruitment of GATA-1 to nascent DNA in CD34+ HPCs; assay type: cell-based, human; settings: CD34+ HPCs induced with EPO 12 hr
Excerpt: as §4
as §3, with “15” for “15 min. Cells were subjected to Click-iT reaction with biotin-azide for 30”, “assays. […]” for “assays.”

[15] = system: T-bet; experiment: CAA: recruitment of T-bet to nascent DNA in T cells (Th1); assay type: cell-based; settings: Th1 pathway, 10 μM GSKJ4 for 5 hr
Description: (§5) FIG. 6 illustrates that fast accumulation of post-replicative H3K27me3 leads to decreased recruitment of lineage-determining TFs to DNA during differentiation of T cells. Naive T cells were primed for 12 hr and stimulated to Th1 (left, middle) or Th2 (right) pathways. Cells were untreated or treated with 10 μM of GSKJ4 for 5 hr, labeled with EdU for 15 min (left) or pulse-labeled for 1 hr (middle and right). CAA was performed with antibodies to H3K27me3 (left), T-bet (middle) and GATA3 (right).
as §3
(§6) New approaches to study the fate of chromatic-associated proteins following DNA replication were developed. […] Cells can be then examined for specificity of interactions (e.g. specific PLA signals are detected only in EdU-labeled nuclei), and by assessing tissue specificity using relevant protein markers. […]

[16] = system: GATA3; experiment: CAA: recruitment of GATA3 to nascent DNA in T cells (Th2); assay type: cell-based; settings: Th2 pathway, 10 μM GSKJ4 for 5 hr
Description: as §5, §3, §6

[17] = system: GR target genes; experiment: qRT-PCR of differentiation-associated (GR target) genes in THP-1, SEM and HH cells; assay type: cell-based, human; settings: 24 hr
Description: Graphs show induction of transcription of GR target genes. […] Graphs show induction of transcription of GR target genes. FIG. 17C The T-ALL HH cells were untreated (Untr) or treated with 1 μM EPZ for 24 hr. […] Bottom graph, cells were then treated with 1 μM of ISX-9 for 72 hr or with combinations of EPZ and ISX9. Analysis by qRT-PCR.
Gene expression analysis by RT-qPCR: Total RNA was isolated directly from freshly collected hESCs with TRIzol and for mESCs with High Pure RNA Isolation Kit. cDNA was synthesized by using 1 μg total RNA in a 20 μL reaction with Superscript III and oligo (dT) for hESC or random hexamers (Life Tech) for mECS. After reverse transcription was complete, one microliter of RNase H was added to each reaction tube, and the tubes were incubated for 20 min at 37° C. before proceeding to PCR. Real-time PCR was carried out on a 7500 Real-Time PCR System using the 2× Power SYBR green PCR master mix. GAPDH was used as an internal control. All PCR products were checked by running an agarose gel for the first time and by doing dissociation assay every time to exclude the possibility of multiple products. PCR analyses were conducted in triplicate for each sample.
Graphs show induction of transcription of GR target genes. […] Graphs show induction of transcription of GR target genes. […]

[18] = system: Y641 and A677 mutants of EZH2; settings: cited from earlier work

Sequence of EZH2 (Q15910 whole entry): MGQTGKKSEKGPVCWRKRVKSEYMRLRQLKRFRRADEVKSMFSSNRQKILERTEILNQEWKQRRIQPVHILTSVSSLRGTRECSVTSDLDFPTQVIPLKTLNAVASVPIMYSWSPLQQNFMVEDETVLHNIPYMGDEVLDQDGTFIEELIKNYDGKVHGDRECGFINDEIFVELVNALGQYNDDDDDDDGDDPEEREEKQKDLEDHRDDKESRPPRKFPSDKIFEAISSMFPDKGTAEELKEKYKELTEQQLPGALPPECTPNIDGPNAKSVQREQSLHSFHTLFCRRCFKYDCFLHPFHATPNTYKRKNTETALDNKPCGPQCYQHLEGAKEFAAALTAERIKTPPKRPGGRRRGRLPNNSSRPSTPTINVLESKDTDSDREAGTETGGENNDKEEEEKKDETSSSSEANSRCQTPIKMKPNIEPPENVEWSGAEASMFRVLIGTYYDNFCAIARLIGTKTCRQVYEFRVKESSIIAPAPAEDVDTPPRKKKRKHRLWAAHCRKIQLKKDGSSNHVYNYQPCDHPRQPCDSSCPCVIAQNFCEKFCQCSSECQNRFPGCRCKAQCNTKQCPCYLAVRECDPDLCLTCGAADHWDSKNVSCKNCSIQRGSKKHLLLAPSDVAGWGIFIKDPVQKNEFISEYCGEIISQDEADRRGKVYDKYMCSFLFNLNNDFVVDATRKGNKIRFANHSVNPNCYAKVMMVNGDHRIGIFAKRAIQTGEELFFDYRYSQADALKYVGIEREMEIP
Sequence of EZH2 (O75530 whole entry partner): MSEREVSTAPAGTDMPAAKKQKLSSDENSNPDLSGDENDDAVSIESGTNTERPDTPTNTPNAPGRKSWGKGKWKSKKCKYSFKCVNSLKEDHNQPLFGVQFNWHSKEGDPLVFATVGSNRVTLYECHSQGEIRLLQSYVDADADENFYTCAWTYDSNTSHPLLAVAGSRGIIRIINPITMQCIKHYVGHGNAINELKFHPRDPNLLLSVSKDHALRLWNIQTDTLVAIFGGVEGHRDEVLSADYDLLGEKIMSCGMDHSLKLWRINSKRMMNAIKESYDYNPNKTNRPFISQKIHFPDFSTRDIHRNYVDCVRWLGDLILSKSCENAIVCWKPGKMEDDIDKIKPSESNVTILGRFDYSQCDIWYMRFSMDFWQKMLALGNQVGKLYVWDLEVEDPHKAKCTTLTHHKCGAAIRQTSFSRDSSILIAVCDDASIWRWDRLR
Sequence of EZH2 (Q15022 whole entry partner): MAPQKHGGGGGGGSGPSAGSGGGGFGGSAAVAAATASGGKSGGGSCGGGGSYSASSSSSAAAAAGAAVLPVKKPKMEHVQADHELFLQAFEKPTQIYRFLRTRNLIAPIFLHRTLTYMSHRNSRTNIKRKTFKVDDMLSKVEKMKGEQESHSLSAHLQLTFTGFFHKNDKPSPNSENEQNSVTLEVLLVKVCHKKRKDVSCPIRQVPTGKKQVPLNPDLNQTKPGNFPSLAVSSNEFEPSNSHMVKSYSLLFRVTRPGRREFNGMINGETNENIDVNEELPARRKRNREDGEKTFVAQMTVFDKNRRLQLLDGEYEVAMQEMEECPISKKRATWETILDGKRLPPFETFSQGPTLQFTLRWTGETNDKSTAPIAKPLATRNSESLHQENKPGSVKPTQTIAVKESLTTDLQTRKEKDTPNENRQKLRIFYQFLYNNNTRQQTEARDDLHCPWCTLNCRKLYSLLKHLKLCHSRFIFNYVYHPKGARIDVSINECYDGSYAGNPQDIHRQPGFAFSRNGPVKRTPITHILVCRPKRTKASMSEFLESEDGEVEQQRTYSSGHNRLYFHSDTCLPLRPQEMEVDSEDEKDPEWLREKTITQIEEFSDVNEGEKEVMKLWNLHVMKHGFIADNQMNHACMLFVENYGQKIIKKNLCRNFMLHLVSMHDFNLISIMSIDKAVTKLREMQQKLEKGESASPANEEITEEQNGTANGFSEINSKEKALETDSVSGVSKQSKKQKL

## arsenic trioxide [ATO]
[1]
  terminal differentiation of cells: around 90%

## Nc1nccc2c1ncn2[C@@H]1C=C(CO)[C@@H](O)[C@H]1O [DZNep, 3-deazaneplanocin A]
[2]
  specificity to EZH2: not specific to EZH2

## CC1=C(/C=C/C(C)=C/C=C/C(C)=C/C(=O)O)C(C)(C)CCC1 [ATRA, all-trans retinoic acid]
[1]
  terminal differentiation of cells: around 90%

## O=C(NC1CC1)c1cc(-c2cccs2)on1 [ISX-9]
[3]
  inhibition of cell viability of TCL cells: effective
[4]
  inhibition of cell viability of AML cell lines: induced inhibition of cell viability in all AML cell lines
[5]
  binding of activated MEF2 to nascent chromatin: occurs only following de-condensation of chromatin by EPZ
[6]
  THP-1 cell growth / outgrowth (bioluminescence fold-changes) vs untreated control animals: little effect
[7]
  efficiency as reprogramming agent across leukemias: efficient in all tested leukemias

## CC[C@H](C)n1cc(C)c2c(C(=O)NCc3c(C)cc(C)[nH]c3=O)cc(-c3ccc(N4CCNCC4)nc3)cc21 [GSK126]
[8]; 24 hr, 0.5-1 μM range, tested by CAA
  levels of global and nascent chromatin marked with H3K27me3: marked decrease

## O=C(O)Cc1cccc(OCCCN(Cc2cccc(C(F)(F)F)c2Cl)CC(c2ccccc2)c2ccccc2)c1 [GW3965]
[9]
  localisation of LXRa after induction with ligand: exclusively nuclear
[10]
  binding of LXRa to DNA, ligand alone: not able to bind to DNA

## CCOC(=O)CCNc1cc(N2CCc3ccccc3CC2)nc(-c2ccccn2)n1 [GSKJ4]
[11]
  accumulation of H3K27me3 following DNA replication: strongly increased
[12]
  recruitment of the TF C/EBPa: strongly inhibited
[13]
  recruitment of the TF PU.1: strongly inhibited
[14]
  recruitment of the TF GATA-1: strongly inhibited
[15]
  recruitment of T-bet to nascent DNA: inhibition
[16]
  recruitment of GATA3 to nascent DNA: inhibition

## C[C@]12C=CC(=O)C=C1CC[C@@H]1[C@@H]2C(=O)C[C@@]2(C)[C@H]1CC[C@]2(O)C(=O)CO [Prednisone]
[8]; HUT78 cells, 0.2 μM, through 10 hr of induction
  level of H3K27me3 on 15 min-labeled nascent DNA: remained unchanged
[17]
  expression of differentiation-associated genes vs untreated cells: no statistical difference

## Cc1cc(C)c(CNC(=O)c2cc(-c3ccc(CN4CCOCC4)cc3)cc3c2cnn3C2CCCC2)c(=O)[nH]1 [EPZ005687]
[18]
  inhibition of the Y641 and A677 mutants of EZH2: can also inhibit
